According to patent US12344649B2, “Modulators of parathyroid hormone receptor (PTHR1)” (Flagship Pioneering Innovations VI, LLC, priority 2019, dated 2025):
Several values for one entry are separate records, joined by “and”; a condition that tells them apart may be missing. Identical values can stand only once. Where no end group is shown, it is not given here.

Assays:
Format in all cases: cell-based
[1] = biological target: T1, PTHR1 (Homo sapiens, UniProt Q03431); assay: β-arrestin2 recruitment BRET assay in transfected HEK293T cells; parameters: Flag (N); Life Technologies Corporation, CA (arrestin cDNA); host or cells: HEK293T (CRL-3216, ATCC); details: for β-arrestin2 assay activity compared to control peptide: FIG. 2, PTH 1-34 positive control; for β2-arrestin: relative to PTH [1-34], HEK293T cells, BRET; for −log10Slope: fitted curve slope; for −log10Slope / EC50: replicate plates
T1 sequence (Q03431 27-593): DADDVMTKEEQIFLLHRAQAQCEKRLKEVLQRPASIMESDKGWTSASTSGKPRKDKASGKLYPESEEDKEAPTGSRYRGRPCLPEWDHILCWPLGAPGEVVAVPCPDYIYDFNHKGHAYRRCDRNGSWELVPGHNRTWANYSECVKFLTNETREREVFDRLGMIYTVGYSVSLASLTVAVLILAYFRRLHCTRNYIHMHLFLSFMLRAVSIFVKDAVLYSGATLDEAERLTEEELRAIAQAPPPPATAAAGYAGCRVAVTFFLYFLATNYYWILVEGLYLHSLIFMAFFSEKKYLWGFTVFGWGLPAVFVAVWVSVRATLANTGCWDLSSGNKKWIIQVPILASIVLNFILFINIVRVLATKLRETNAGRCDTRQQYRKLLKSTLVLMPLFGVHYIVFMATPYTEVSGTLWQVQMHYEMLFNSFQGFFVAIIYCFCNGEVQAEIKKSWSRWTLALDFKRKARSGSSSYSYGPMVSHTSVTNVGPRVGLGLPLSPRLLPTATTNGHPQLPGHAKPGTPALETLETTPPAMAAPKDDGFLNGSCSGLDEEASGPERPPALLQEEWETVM
Protocol: (§1) 18-24 hours post transfection, the Luciferase substrate Coelenterazine (NanoLight Technologies, AZ) was added to cells, a baseline BRET measurement was taken after 5 minutes incubation, and then serial dilutions of peptides, diluted in PBS (with 0.5 mM MgCl2+0.1% BSA FAF), were added to cells, and BRET signal was measured every 2 minutes for 30 minutes on Hybrid Multi-Mode Reader (Synergy Neo2, BioTek, VT). Seventy-five peptides were tested in the β-arrestin recruitment assay.

[2] = biological target: T1, PTHR1; assay: cAMP accumulation assay (HTRF) in CHO-K1/Ga15/PTHR1 cells; parameters: host or cells: CHO-K1 (recombinant line CHO-K1/Ga15/PTHR1); details: for Emax: CHO-K1, cAMP assay, fitted dose-response maximum; for cAMP accumulation activity compared to control peptide: FIG. 3, PTH 1-34 positive control; for cAMP: relative to PTH [1-34], CHO-K1/Ga15/PTHR1 cells
Protocol: Cell suspension (5 μL) was seeded in 384-well plates at a density of 3,000 cells/well. Cells were treated with test samples (5 μL) or agonist (PTH 1-34) for 30 minutes at room temperature. cAMP-d2 working solution (5 μL) and anti-cAMP-Cryptate working solution (5 μL) were added to cells and incubated for 60 minutes at room temperature. The signal of the assay plate was read with PheraStar (BMG LABTECH, NC), an HTRF compatible reader.

[3] = biological target: T1, PTHR1; assay: β-arrestin1 recruitment BRET assay in transfected HEK293T cells; parameters: Flag (N); Life Technologies Corporation, CA (arrestin cDNA); host or cells: HEK293T (CRL-3216, ATCC); details: for −log10Slope: fitted curve slope; for −log10Slope / EC50: replicate plates
Protocol: as §1

[4] = β-arrestin2 recruitment, read-out: −log10EC50 (converted)
[5] = cAMP accumulation, fitted curve slope, replicate plates
[6] = cAMP accumulation, replicate plates, read-out: −log10EC50 (converted)
[7] = β-arrestin1 recruitment, read-out: −log10EC50 (converted)

Compound | β-arrestin2 assay activity compared to control peptide [1] | β2-arrestin [1] | −log10Slope ([1]; β-arrestin2 recruitment, listed as R1-101) | Emax [2] [%] | cAMP accumulation activity compared to control peptide [2] | −log10Slope ([2]; cAMP accumulation, fitted curve slope, replicate plates, listed as R1-101) | cAMP [2] | β1-arrestin ([3]; relative to PTH [1-34], HEK293T cells, BRET) | −log10Slope ([3]; β-arrestin1 recruitment, listed as R1-101) | −log10Slope ([1]; β-arrestin2 recruitment) | EC50 [1, 4] | −log10Slope [2, 5] | EC50 [2, 6] [nM] | −log10Slope ([3]; β-arrestin1 recruitment) | EC50 [3, 7] | EC50 ([1]; −log10EC50, β-arrestin2 recruitment) | EC50 [2] [nM] | EC50 ([3]; −log10EC50, β-arrestin1 recruitment) | EC50 ([2]; cAMP assay, fitted dose-response curve, read-out: −log10EC50 (converted)) [nM] | −log10Slope ([2]; cAMP assay, fitted dose-response slope)
CC[C@H](C)[C@H](NC(=O)[C@H](CCC(=O)O)NC(=O)[C@H](CO)NC(=O)[C@@H](NC(=O)[C@@H](N)CO)C(C)C)C(=O)N[C@@H](CCC(N)=O)C(=O)N[C@@H](CC(C)C)C(=O)N[C@@H](CCSC)C(=O)N[C@@H](Cc1cnc[nH]1)C(=O)N[C@@H](CC(N)=O)C(=O)N[C@@H](CC(C)C)C(=O)NCC(=O)N[C@@H](CCCCN)C(=O)N[C@@H](Cc1cnc[nH]1)C(=O)N[C@@H](CC(C)C)C(=O)N[C@@H](CC(N)=O)C(=O)N[C@@H](CO)C(=O)N[C@@H](CCSC)C(=O)N[C@@H](CCC(=O)O)C(=O)N[C@@H](CCCN=C(N)N)C(=O)N[C@H](C(=O)N[C@@H](CCC(=O)O)C(=O)N[C@@H](Cc1c[nH]c2ccccc12)C(=O)N[C@@H](CC(C)C)C(=O)N[C@@H](CCCN=C(N)N)C(=O)N[C@@H](CCCCN)C(=O)N[C@@H](CCCCN)C(=O)N[C@@H](CC(C)C)C(=O)N[C@@H](CCC(N)=O)C(=O)N[C@@H](CC(=O)O)C(=O)N[C@H](C(=O)N[C@@H](Cc1cnc[nH]1)C(=O)N[C@@H](CC(N)=O)C(=O)N[C@@H](Cc1ccccc1)C(=O)O)C(C)C)C(C)C [Teriparatide, reference compound] | increased activity as compared to control | ++ | −3.44 and −3.409 and −3.396 | 100 | increased activity as compared to the control peptide | −4.492 and −4.864 and −4.046 | ++ | + | −2.906 and −3.664 and −1.356 |  |  |  |  |  |  |  |  |  |  | 
AVAEIQLMHQRAKWAIQEIGIKITRELLERYL [Peptide R2-42] | activity similar to the control peptide | + |  |  |  |  |  |  |  | −2.7849 and −2.122 and −2.912 | 8.07 nM and 4.22 nM and 23.7 nM | 13.11 | 285 | −1.503 and −1.149 and −5.574 |  |  |  |  |  | 
AVAEIQLMHQRAKWDLLIELVKLLHELLKEYI [Peptide R2-40] |  |  |  |  | increased activity as compared to the control peptide |  | ++ |  |  | −3.733 and −2.83 | 856 nM and 1410 nM | −2.205 | 0.00583 | −4.125 and −1.577 | 571 nM and 3600 nM |  |  |  |  | 
AVAEIQLMHQRAKWDVLIELAKLLAELLRRYH [Peptide R2-47] |  |  |  |  | increased activity as compared to the control peptide |  | ++ |  |  | −2.078 and −1.716 and −1.634 |  | 12 |  | −1.834 and −2.2235 and −1.644 |  | 1370 nM and 1710 nM and 3480 nM | 0.591 | 1430 nM and 651 nM and 3640 nM |  | 
AVAEIQLMHQRAKWEIQEIGIKITLDLLQTLK [Peptide R2-41] |  |  |  |  | increased activity as compared to the control peptide |  | ++ |  |  | −4.333 | 940 nM | −2.911 | 0.0557 | −8.214 | 3.83 nM |  |  |  |  | 
AVAEIQLMHQRAKWEIQEIGIKITLELLKEYI [Peptide R2-37] |  |  |  |  | increased activity as compared to the control peptide |  |  |  |  | −4.144 and −2.117 and −4.372 | 386 nM and 1380 nM and 497 nM | −5.899 | 0.813 | −1.386 and −0.8678 and −5.353 |  |  |  |  |  | 
AVAEIQLMHQRAKWELEFELFREFLKLLVDFF [Peptide R1-97] |  |  |  | 99.3 |  |  |  |  |  | −4.859 and −4.946 and −1.289 and −4.995 |  |  |  | −0.04462 and −1.336 and −0.04454 and −4.221 |  |  |  |  | 58.7 | −14.176
